These results are taken from patent publication US20260131009A1, “BIFUNCTIONAL PI3K-ALPHA INHIBITORS AND USES THEREOF” (Relay Therapeutics, Inc., priority 2021, published 2026).

The IC50 is the concentration at which inhibition is half-maximal.

The target in the test is PI3Kα (Homo sapiens, UniProt P42336, H1047R). Description: ADP-Glo IC50 assay. In kind it is biochemical. Particulars: class symbols; key not given.

SMILES strings stand for the structures.

Sequence of PI3Kα (P42336 whole entry H1047R): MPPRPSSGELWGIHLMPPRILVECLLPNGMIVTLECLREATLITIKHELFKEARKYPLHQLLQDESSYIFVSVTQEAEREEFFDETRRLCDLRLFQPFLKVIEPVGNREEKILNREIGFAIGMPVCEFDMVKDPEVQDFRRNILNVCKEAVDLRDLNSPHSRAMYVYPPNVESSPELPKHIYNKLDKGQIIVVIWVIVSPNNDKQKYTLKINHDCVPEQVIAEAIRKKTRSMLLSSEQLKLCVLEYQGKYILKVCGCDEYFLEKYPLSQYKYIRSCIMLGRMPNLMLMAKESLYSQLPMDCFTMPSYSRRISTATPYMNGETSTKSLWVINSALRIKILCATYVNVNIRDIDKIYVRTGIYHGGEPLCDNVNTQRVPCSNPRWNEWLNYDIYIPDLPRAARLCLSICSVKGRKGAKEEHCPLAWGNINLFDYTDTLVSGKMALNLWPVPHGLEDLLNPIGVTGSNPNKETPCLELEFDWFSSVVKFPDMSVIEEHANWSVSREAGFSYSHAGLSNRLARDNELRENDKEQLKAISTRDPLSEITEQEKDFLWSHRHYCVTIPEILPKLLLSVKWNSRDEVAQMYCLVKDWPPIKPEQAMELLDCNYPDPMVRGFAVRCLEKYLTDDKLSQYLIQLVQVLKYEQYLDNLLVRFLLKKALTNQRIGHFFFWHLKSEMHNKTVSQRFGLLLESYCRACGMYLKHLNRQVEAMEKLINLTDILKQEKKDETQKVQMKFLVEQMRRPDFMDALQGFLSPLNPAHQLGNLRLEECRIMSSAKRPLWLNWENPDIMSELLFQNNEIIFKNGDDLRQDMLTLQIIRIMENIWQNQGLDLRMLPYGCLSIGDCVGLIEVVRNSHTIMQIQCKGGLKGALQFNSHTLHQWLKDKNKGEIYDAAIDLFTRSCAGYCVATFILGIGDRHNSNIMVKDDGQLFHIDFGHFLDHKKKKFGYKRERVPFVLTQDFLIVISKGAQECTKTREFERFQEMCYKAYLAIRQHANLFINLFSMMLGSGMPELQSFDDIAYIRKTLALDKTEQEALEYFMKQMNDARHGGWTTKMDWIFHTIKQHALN
Sequence of PI3Kα (P27986 whole entry partner): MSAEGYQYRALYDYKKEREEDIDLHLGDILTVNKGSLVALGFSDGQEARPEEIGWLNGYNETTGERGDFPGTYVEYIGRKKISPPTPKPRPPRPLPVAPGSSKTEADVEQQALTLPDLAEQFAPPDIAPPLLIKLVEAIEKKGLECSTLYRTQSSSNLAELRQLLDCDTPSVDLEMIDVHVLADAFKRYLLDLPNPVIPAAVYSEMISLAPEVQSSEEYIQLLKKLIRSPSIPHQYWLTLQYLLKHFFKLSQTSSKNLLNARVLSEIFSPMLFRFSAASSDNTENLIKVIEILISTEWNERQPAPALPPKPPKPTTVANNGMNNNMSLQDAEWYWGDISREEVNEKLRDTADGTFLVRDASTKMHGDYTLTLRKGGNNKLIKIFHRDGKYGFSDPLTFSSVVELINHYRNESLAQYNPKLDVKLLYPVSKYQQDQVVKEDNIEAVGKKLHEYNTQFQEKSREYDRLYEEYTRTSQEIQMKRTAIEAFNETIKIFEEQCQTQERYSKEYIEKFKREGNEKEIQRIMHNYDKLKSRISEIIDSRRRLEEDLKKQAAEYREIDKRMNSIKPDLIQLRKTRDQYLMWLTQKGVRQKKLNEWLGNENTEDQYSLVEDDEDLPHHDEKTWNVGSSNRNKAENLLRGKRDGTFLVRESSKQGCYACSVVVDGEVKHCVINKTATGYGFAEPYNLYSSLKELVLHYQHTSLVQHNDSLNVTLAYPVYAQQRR

`Cc1ncsc1-c1ccc([C@H](C)NC(=O)[C@@H]2C[C@@H](O)CN2C(=O)[C@@H](NC(=O)CCCCCCCCCNC(=O)c2cc(NC(=O)c3nsc4ccccc34)c3n2CC(=O)N[C@H]3c2cc(F)ccc2Cl)C(C)(C)C)cc1` [Example I-113] showed an IC50 of 100 to 500 nM.

Regarding `Cc1cc([C@@H](C)Nc2ccccc2C(=O)O)c2oc(N3CCN(C(=O)CCOCCOCCNC(=O)c4cnc(Nc5ccccc5C)c(NC(=O)c5csc6ccccc56)c4)CC3)cc(=O)c2c1` [Example I-125], the IC50 is below 100 nM.

The compound `Cc1cc([C@H](C)Nc2ccccc2C(=O)O)c2oc(N3CCN(C(=O)CCOCCOCCNC(=O)c4cnc(Nc5ccccc5C)c(NC(=O)c5csc6ccccc56)c4)CC3)cc(=O)c2c1` [Example I-126] came in with an IC50 of 100 to 500 nM.

In turn, `Cc1cc([C@H](C)Nc2ccccc2C(=O)O)c2oc(N3CCN(C(=O)CCC(=O)NCc4ccc5c(c4)C(=O)N(C4CCC(=O)NC4=O)C5)CC3)cc(=O)c2c1` (stereo partly drawn) [Example I-127] gave an IC50 of 1000 to 10000 nM.

`Cc1cc([C@H](C)Nc2ccccc2C(=O)O)c2oc(N3CCN(C(=O)CCCCCNc4ccc5c(c4)C(=O)N(C4CCC(=O)NC4=O)C5=O)CC3)cc(=O)c2c1` (stereo partly drawn) [Example I-128] registered a concentration for half-maximal inhibition (IC50) of 1000 to 10000 nM.

With `Cc1cc([C@H](C)Nc2ccccc2C(=O)O)c2oc(N3CCN(C(=O)CCCCCCNc4ccc5c(c4)C(=O)N(C4CCC(=O)NC4=O)C5=O)CC3)cc(=O)c2c1` (stereo partly drawn) [Example I-129], the IC50 was 1000 to 10000 nM.

Take `Cc1cc([C@H](C)Nc2ccccc2C(=O)O)c2oc(N3CCN(C(=O)CCNc4ccc5c(c4)C(=O)N(C4CCC(=O)NC4=O)C5=O)CC3)cc(=O)c2c1` (stereo partly drawn) [Example I-130]: the IC50 lay in the range of 1000 to 10000 nM.

Take `Cc1cc([C@@H](C)Nc2ccccc2C(=O)O)c2oc(N3CCN(C(=O)CCCCCNc4ccc5c(c4)C(=O)N(C4CCC(=O)NC4=O)C5=O)CC3)cc(=O)c2c1` (stereo partly drawn) [Example I-132]: the IC50 fell in the range of 500 to 1000 nM.

Compound `Cc1cc([C@H](C)Nc2ccccc2C(=O)O)c2oc(N3CCN(C(=O)CCCNc4cccc5c4C(=O)N(C4CCC(=O)NC4=O)C5=O)CC3)cc(=O)c2c1` (stereo partly drawn) [Example I-133] returned an IC50 of 1000 to 10000 nM.

Turning to `Cc1cc([C@H](C)Nc2ccccc2C(=O)O)c2oc(N3CCN(C(=O)CCNc4cccc5c4C(=O)N(C4CCC(=O)NC4=O)C5=O)CC3)cc(=O)c2c1` (stereo partly drawn) [Example I-134], the IC50 lay in the range of 1000 to 10000 nM.

Turning to `Cc1cc([C@@H](C)Nc2ccccc2C(=O)O)c2oc(N3CCN(C(=O)CCNc4cccc5c4C(=O)N(C4CCC(=O)NC4=O)C5=O)CC3)cc(=O)c2c1` (stereo partly drawn) [Example I-135], the IC50 lay within 500 to 1000 nM.

`Cc1cc([C@H](C)Nc2ccccc2C(=O)O)c2oc(N3CCN(C(=O)CCCCCCCNc4cccc5c4C(=O)N(C4CCC(=O)NC4=O)C5=O)CC3)cc(=O)c2c1` (stereo partly drawn) [Example I-136] showed an IC50 of 1000 to 10000 nM.

Consider `Cc1cc([C@H](C)Nc2ccccc2C(=O)O)c2oc(N3CCN(C(=O)CCCCCNc4cccc5c4C(=O)N(C4CCC(=O)NC4=O)C5=O)CC3)cc(=O)c2c1` (stereo partly drawn) [Example I-137], for which the IC50 lay in the range of 1000 to 10000 nM.

The compound `Cc1cc([C@H](C)Nc2ccccc2C(=O)O)c2oc(N3CCN(C(=O)CCOCCNc4ccc5c(c4)C(=O)N(C4CCC(=O)NC4=O)C5=O)CC3)cc(=O)c2c1` (stereo partly drawn) [Example I-138] gave an IC50 of 1000 to 10000 nM.

`Cc1cc([C@@H](C)Nc2ccccc2C(=O)O)c2oc(N3CCN(C(=O)CCNc4ccc5c(c4)C(=O)N(C4CCC(=O)NC4=O)C5=O)CC3)cc(=O)c2c1` (stereo partly drawn) [Example I-140] registered an IC50 of 500 to 1000 nM.

`Cc1cc([C@@H](C)Nc2ccccc2C(=O)O)c2oc(N3CCN(C(=O)CCCNc4cccc5c4C(=O)N(C4CCC(=O)NC4=O)C5=O)CC3)cc(=O)c2c1` (stereo partly drawn) [Example I-141] came in with an IC50 of 500 to 1000 nM.

Take `Cc1cc([C@@H](C)Nc2ccccc2C(=O)O)c2oc(N3CCN(C(=O)CCCCCNc4cccc5c4C(=O)N(C4CCC(=O)NC4=O)C5=O)CC3)cc(=O)c2c1` (stereo partly drawn) [Example I-142]: the IC50 lay in the range of 500 to 1000 nM.

With `Cc1cc([C@@H](C)Nc2ccccc2C(=O)O)c2oc(N3CCN(C(=O)CCCCCCCNc4cccc5c4C(=O)N(C4CCC(=O)NC4=O)C5=O)CC3)cc(=O)c2c1` (stereo partly drawn) [Example I-143], the IC50 was in the range of 1000 to 10000 nM.
